Reference: PubChem BioAssay (NCI)
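Step 1: Grow cells in 96-well plates. Step 2: Expose to compound for 48 hours at 5 concentrations. Step 3: Interpolate endpoints linearly; if unreached, use highest concentration. The concentration for full growth arrest is given as TGI.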

Tested on: RXF-631 renal
Experiment: NCI anticancer screen, dose series, 48 h

In the case of `Cc1nc2sccn2c1C(=O)NN`, the TGI is reported as over 100 µM.
For `COc1ccc(C(c2ccccc2)(c2ccc(OC)cc2)N2C(=O)NC3C(CCCCC(=O)NCCCCCCOP(OCCC#N)N(C(C)C)C(C)C)SCC32)cc1` (configuration not stated), the TGI was 17.7 µM.
